Experiments:
Type in all cases: in vivo
[1] = test system: common lambsquarters (Ch); test: Test Example 3: herbicidal effects by upland field foliage treatment; set-up: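 grade of growth control; 5 = at least 90%; 4 = 70 to 90%; 3 = 50 to 70%; 2 = 30 to 50%; 1 = 10 to 30%; 0 = under 10%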; conditions: 100 g active ingredient per 10 ares, evaluated 14th day after treatment
Procedure, shortened: (§1)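 Readout: visual herbicidal rating per defined standards, 14th day after treatment. Plants sown in sand (pot area 120 cm^2), soil-covered, greenhouse-cultured for 2 weeks prior to foliage application, then greenhouse-grown until scoring.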

pale smartweed (Po) [2] = test: as above; set-up: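 grade of growth control; 5 = at least 90%; 4 = 70 to 90%; 3 = 50 to 70%; 2 = 30 to 50%; 1 = 10 to 30%; 0 = under 10%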; conditions: 100 g active ingredient per 10 ares, evaluated 14th day after treatment
Procedure, shortened: as §1

Diaitaria ciliaris (Di) = test: as above; set-up: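 grade of growth control; 5 = at least 90%; 4 = 70 to 90%; 3 = 50 to 70%; 2 = 30 to 50%; 1 = 10 to 30%; 0 = under 10%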; conditions: 100 g active ingredient per 10 ares, evaluated 14th day after treatment
Procedure, shortened: as §1

barnyardgrass (Ec) [3] = test: as above; set-up: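 grade of growth control; 5 = at least 90%; 4 = 70 to 90%; 3 = 50 to 70%; 2 = 30 to 50%; 1 = 10 to 30%; 0 = under 10%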; conditions: 100 g active ingredient per 10 ares, evaluated 14th day after treatment
Procedure, shortened: as §1

rice flatsedge (Ci) [4] = test: as above; set-up: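 grade of growth control; 5 = at least 90%; 4 = 70 to 90%; 3 = 50 to 70%; 2 = 30 to 50%; 1 = 10 to 30%; 0 = under 10%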; conditions: 100 g active ingredient per 10 ares, evaluated 14th day after treatment
Procedure, shortened: as §1

slender amaranth (Am) [5] = test: as above; set-up: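 grade of growth control; 5 = at least 90%; 4 = 70 to 90%; 3 = 50 to 70%; 2 = 30 to 50%; 1 = 10 to 30%; 0 = under 10%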; conditions: 100 g active ingredient per 10 ares, evaluated 14th day after treatment
Procedure, shortened: as §1

[6] = test system: common lambsquarters (Ch); test: Test Example 2: herbicidal effects by upland field soil treatment; conditions: 100 g of the active ingredient per 10 ares, evaluated on the 21st day after application;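 further: grade of growth control; 5 = at least 90%; 4 = 70 to 90%; 3 = 50 to 70%; 2 = 30 to 50%; 1 = 10 to 30%; 0 = under 10%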
Description: (§2) (Test on Herbicidal Effects by Upland Field Soil Treatment)

Digitaria ciliaris (Di) = test: as above; conditions: 100 g of the active ingredient per 10 ares, evaluated on the 21st day after application;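 further: grade of growth control; 5 = at least 90%; 4 = 70 to 90%; 3 = 50 to 70%; 2 = 30 to 50%; 1 = 10 to 30%; 0 = under 10%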
Description: as §2

pale smartweed (Po) [7] = test: as above; conditions: 100 g of the active ingredient per 10 ares, evaluated on the 21st day after application
Description: as §2

barnyardgrass (Ec) [8] = test: as above; conditions: 100 g of the active ingredient per 10 ares, evaluated on the 21st day after application
Description: as §2

rice flatsedge (Ci) [9] = test: as above; conditions: 100 g of the active ingredient per 10 ares, evaluated on the 21st day after application
Description: as §2

slender amaranth (Am) [10] = test: as above; conditions: 100 g of the active ingredient per 10 ares, evaluated on the 21st day after application
Description: as §2

barnyardgrass (Ec) [11] = test: Test Example 1: herbicidal effects by paddy field soil treatment; conditions: 100 g of the active ingredient per 10 ares, 21st day after the application, index 0-5 of Table 47;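 further: grade of growth control; 5 = at least 90%; 4 = 70 to 90%; 3 = 50 to 70%; 2 = 30 to 50%; 1 = 10 to 30%; 0 = under 10%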
Procedure, shortened: (§3)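 Scoring of herbicidal effect came 21 days after application of 100 g active ingredient per 10 ares to flooded (3 cm) paddy-soil pots sown with barnyardgrass, monochoria and bulrush, kept in a greenhouse.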

monochoria (Mo) = test: as above; conditions: 100 g of the active ingredient per 10 ares, 21st day after the application, index 0-5 of Table 47;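 further: grade of growth control; 5 = at least 90%; 4 = 70 to 90%; 3 = 50 to 70%; 2 = 30 to 50%; 1 = 10 to 30%; 0 = under 10%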
Procedure, shortened: as §3

bulrush (Sc) = test: as above; conditions: 100 g of the active ingredient per 10 ares, 21st day after the application, index 0-5 of Table 47
Procedure, shortened: as §3

C=C(C)CN1C(=O)COc2cc(F)c(-c3ccc(C(F)(F)F)n(C)c3=O)cc21 [Compound 2-11]
5: Herbicidal effects Ch [1] | Herbicidal effects Po (pale smartweed (Po) [2]) | Herbicidal effects Di (Diaitaria ciliaris (Di)) | Herbicidal effects Ec (barnyardgrass (Ec) [3]) | Herbicidal effects Ci (rice flatsedge (Ci) [4]) | Herbicidal effects Am (slender amaranth (Am) [5]) | Herbicidal effects Ch [6] | Herbicidal effects Di (Digitaria ciliaris (Di)) | Herbicidal effects Po (pale smartweed (Po) [7]) | Herbicidal effects Ec (barnyardgrass (Ec) [8]) | Herbicidal effects Ci (rice flatsedge (Ci) [9]) | Herbicidal effects Am (slender amaranth (Am) [10]) | Herbicidal effects Ec (barnyardgrass (Ec) [11]) | Herbicidal effects Mo (monochoria (Mo)) | Herbicidal effects Sc (bulrush (Sc))

CC=CCN1C(=O)COc2cc(F)c(-c3ccc(C(F)(F)F)n(C)c3=O)cc21 [Compound 2-12]
5: Herbicidal effects Ch [1] | Herbicidal effects Po (pale smartweed (Po) [2]) | Herbicidal effects Di (Diaitaria ciliaris (Di)) | Herbicidal effects Ec (barnyardgrass (Ec) [3]) | Herbicidal effects Ci (rice flatsedge (Ci) [4]) | Herbicidal effects Am (slender amaranth (Am) [5]) | Herbicidal effects Ch [6] | Herbicidal effects Di (Digitaria ciliaris (Di)) | Herbicidal effects Po (pale smartweed (Po) [7]) | Herbicidal effects Ec (barnyardgrass (Ec) [8]) | Herbicidal effects Ci (rice flatsedge (Ci) [9]) | Herbicidal effects Am (slender amaranth (Am) [10]) | Herbicidal effects Ec (barnyardgrass (Ec) [11]) | Herbicidal effects Mo (monochoria (Mo)) | Herbicidal effects Sc (bulrush (Sc))

C=C(Cl)CN1C(=O)COc2cc(F)c(-c3ccc(C(F)(F)F)n(C)c3=O)cc21 [Compound 2-13]
5: Herbicidal effects Ch [1] | Herbicidal effects Po (pale smartweed (Po) [2]) | Herbicidal effects Di (Diaitaria ciliaris (Di)) | Herbicidal effects Ec (barnyardgrass (Ec) [3]) | Herbicidal effects Ci (rice flatsedge (Ci) [4]) | Herbicidal effects Am (slender amaranth (Am) [5]) | Herbicidal effects Ch [6] | Herbicidal effects Di (Digitaria ciliaris (Di)) | Herbicidal effects Po (pale smartweed (Po) [7]) | Herbicidal effects Ec (barnyardgrass (Ec) [8]) | Herbicidal effects Ci (rice flatsedge (Ci) [9]) | Herbicidal effects Am (slender amaranth (Am) [10]) | Herbicidal effects Ec (barnyardgrass (Ec) [11]) | Herbicidal effects Mo (monochoria (Mo)) | Herbicidal effects Sc (bulrush (Sc))

CN1C(=O)COc2cc(F)c(-c3ccc(C(F)(F)F)n(C)c3=O)cc21 [Compound 2-16]
5: Herbicidal effects Ch [1] | Herbicidal effects Po (pale smartweed (Po) [2]) | Herbicidal effects Di (Diaitaria ciliaris (Di)) | Herbicidal effects Ec (barnyardgrass (Ec) [3]) | Herbicidal effects Ci (rice flatsedge (Ci) [4]) | Herbicidal effects Am (slender amaranth (Am) [5]) | Herbicidal effects Ch [6] | Herbicidal effects Di (Digitaria ciliaris (Di)) | Herbicidal effects Po (pale smartweed (Po) [7]) | Herbicidal effects Ec (barnyardgrass (Ec) [8]) | Herbicidal effects Ci (rice flatsedge (Ci) [9]) | Herbicidal effects Am (slender amaranth (Am) [10]) | Herbicidal effects Ec (barnyardgrass (Ec) [11]) | Herbicidal effects Mo (monochoria (Mo)) | Herbicidal effects Sc (bulrush (Sc))

Cc1cc2c(-c3ccc(C(F)(F)F)n(C)c3=O)c(Cl)cc(Cl)c2o1 [Compound 4-10]
5: Herbicidal effects Ch [1] | Herbicidal effects Po (pale smartweed (Po) [2]) | Herbicidal effects Di (Diaitaria ciliaris (Di)) | Herbicidal effects Ec (barnyardgrass (Ec) [3]) | Herbicidal effects Ci (rice flatsedge (Ci) [4]) | Herbicidal effects Am (slender amaranth (Am) [5]) | Herbicidal effects Ch [6] | Herbicidal effects Di (Digitaria ciliaris (Di)) | Herbicidal effects Po (pale smartweed (Po) [7]) | Herbicidal effects Ec (barnyardgrass (Ec) [8]) | Herbicidal effects Ci (rice flatsedge (Ci) [9]) | Herbicidal effects Am (slender amaranth (Am) [10]) | Herbicidal effects Ec (barnyardgrass (Ec) [11]) | Herbicidal effects Mo (monochoria (Mo)) | Herbicidal effects Sc (bulrush (Sc))

Cn1c(C(F)(F)F)ccc(-c2c(Cl)cc(Cl)c3oc(CBr)cc23)c1=O [Compound 4-16]
5: Herbicidal effects Ch [1] | Herbicidal effects Po (pale smartweed (Po) [2]) | Herbicidal effects Di (Diaitaria ciliaris (Di)) | Herbicidal effects Ec (barnyardgrass (Ec) [3]) | Herbicidal effects Ci (rice flatsedge (Ci) [4]) | Herbicidal effects Am (slender amaranth (Am) [5]) | Herbicidal effects Ch [6] | Herbicidal effects Di (Digitaria ciliaris (Di)) | Herbicidal effects Po (pale smartweed (Po) [7]) | Herbicidal effects Ec (barnyardgrass (Ec) [8]) | Herbicidal effects Ci (rice flatsedge (Ci) [9]) | Herbicidal effects Am (slender amaranth (Am) [10]) | Herbicidal effects Ec (barnyardgrass (Ec) [11]) | Herbicidal effects Mo (monochoria (Mo)) | Herbicidal effects Sc (bulrush (Sc))

— patent publication US6472348B1, “Pyridone derivatives and herbicides” (Kumiai Chemical Industry Co., Ltd., priority 1996, dated 2002)
